Source: patent US10800792B2, “Inhibitors of Bruton's tyrosine kinase and method of their use” (JANSSEN PHARMACEUTICA NV, priority 2015, dated 2020)

biological target: unphosphorylated-BTK kinase domain (UP-BTK), GST-tagged human BTK (389-659aa) (Homo sapiens (Human), UniProt Q06187); experiment: BTK kinase Lanthascreen binding assay; conditions: pIC50 = negative log of the IC50 in molar; 60 minutes incubation, 50 nM Tracer 236
Method in brief: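 A fluorescent tracer is bound to unphosphorylated BTK; test compound is added to compete it off; the Lanthascreen signal is read and IC50 is fitted, then reported as its negative log in molar.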

unphosphorylated-BTK kinase domain (UP-BTK), GST-tagged human BTK (389-659aa), sequence (Q06187 389-659): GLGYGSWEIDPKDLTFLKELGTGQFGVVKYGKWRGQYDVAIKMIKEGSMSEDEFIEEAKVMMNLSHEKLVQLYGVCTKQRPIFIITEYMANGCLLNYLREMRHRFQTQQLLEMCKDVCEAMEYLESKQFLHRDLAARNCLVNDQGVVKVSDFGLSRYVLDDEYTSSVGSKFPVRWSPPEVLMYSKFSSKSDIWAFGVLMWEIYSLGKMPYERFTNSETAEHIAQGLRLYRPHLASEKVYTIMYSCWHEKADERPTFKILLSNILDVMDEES

In order of falling “BTK_I_binding pIC50” value:
1. C=CC(=O)N1CCC[C@@H](NC(=O)c2sc3nccc4c3c2NC(=O)N4c2ccc(OC)cc2)C1 [Example 254]  6.6
2. C=CC(=O)N1CCC[C@@H](NC(=O)c2sc3nccc4c3c2NC(=O)N4c2ccc(F)cc2)C1 [Example 255, (R)—N-(1-Acryloylpiperidin-3-yl)-5-(4-fluorophenyl)-4-oxo-4,5-dihydro-3H-1-thia-3,5,8-triazaacenaphthylene-2-carboxamide]  6.6
3. C=CC(=O)N1CCC[C@@H](NC(=O)c2sc3nccc4c3c2NC(=O)N4c2ccc(Cl)cc2)C1 [Example 256, (R)—N-(1-Acryloylpiperidin-3-yl)-5-(4-chlorophenyl)-4-oxo-4,5-dihydro-3H-1-thia-3,5,8-triazaacenaphthylene-2-carboxamide]  6.6
4. Cc1cc(Oc2ccccc2)ccc1N1C(=O)Nc2c(C(=O)NC3CCNC(C)C3)sc3nccc1c23 (stereo not drawn) [Example 258, 5-(2-methyl-4-phenoxyphenyl)-N-(2-methylpiperidin-4-yl)-4-oxo-4,5-dihydro-3H-1-thia-3,5,8-triazaacenaphthylene-2-carboxamide]  6.5
5. CO[C@@H]1C[C@@H](NC(=O)c2sc3nccc4c3c2NC(=O)N4c2ccc(Oc3ccccc3)cc2)CN(C)C1 [Example 259, N-((3R,5R)-5-Methoxy-1-methylpiperidin-3-yl)-4-oxo-5-(4-phenoxyphenyl)-4,5-dihydro-3H-1-thia-3,5,8-triazaacenaphthylene-2-carboxamide]  6.5
6. CC(C)=C(Cl)C(=O)N1CCC[C@@H](NC(=O)c2sc3nccc4c3c2NC(=O)N4c2ccc(Oc3ccccc3)cc2C)C1 [Example 260, (R)—N-(1-(2-chloro-3-methylbut-2-enoyl)piperidin-3-yl)-5-(2-methyl-4-phenoxyphenyl)-4-oxo-4,5-dihydro-3H-1-thia-3,5,8-triazaacenaphthylene-2-carboxamide]  6.5
7. C/C=C(\F)C(=O)N1CCC[C@@H](NC(=O)c2sc3nccc4c3c2NC(=O)N4c2ccc(Oc3ccccc3)cc2C)C1 [Example 261, (R,Z)—N-(1-(2-Fluorobut-2-enol)piperidin-3-yl)-5-(2-methyl-4-phenoxyphenyl)-4-oxo-4,5-dihydro-3H-1-thia-3,5,8-triazaacenaphthylene-2-carboxamide]  6.5
8. Cc1cc(OC2CCCCC2)ccc1N1C(=O)Nc2c(C(=O)N[C@@H]3CCCN(C)C3)sc3nccc1c23 [Example 250, (R)-5-(4-(Cyclohexyloxy)-2-methylphenyl)-N-(1-methylpiperidin-3-yl)-4-oxo-4,5-dihydro-3H-1-thia-3,5,8-triazaacenaphthylene-2-carboxamide]  6.4
9. CCN1CC(NC(=O)c2sc3nccc4c3c2NC(=O)N4c2ccc(Oc3ccccc3)cc2C)C1 [Example 251, N-(1-Ethylazetidin-3-yl)-5-(2-methyl-4-phenoxyphenyl)-4-oxo-4,5-dihydro-3H-1-thia-3,5,8-triazaacenaphthylene-2-carboxamide]  6.4
10. Cc1cc(Oc2ccccc2)ccc1N1C(=O)Nc2c(C(=O)NC3CNC3)sc3nccc1c23 [Example 252, N-(azetidin-3-yl)-5-(2-methyl-4-phenoxyphenyl)-4-oxo-4,5-dihydro-3H-1-thia-3,5,8-triazaacenaphthylene-2-carboxamide]  6.4
11. C=CC(=O)N1CCC[C@@H](NC(=O)c2sc3nccc4c3c2NC(=O)N4c2ccccc2)C1 [Example 257, (R)—N-(1-Acryloylpiperidin-3-yl)-4-oxo-5-phenyl-4,5-dihydro-3H-1-thia-3,5,8-triazaacenaphthylene-2-carboxamide]  6.4
12. CC(C)=C(F)C(=O)N1CCC[C@@H](NC(=O)c2sc3nccc4c3c2NC(=O)N4c2ccc(Oc3ccccc3)cc2C)C1 [Example 263, (R)—N-(1-(2-Fluoro-3-methylbut-2-enoyl)piperidin-3-yl)-5-(2-methyl-4-phenoxyphenyl)-4-oxo-4,5-dihydro-3H-1-thia-3,5,8-triazaacenaphthylene-2-carboxamide]  6.4
13. C=CC(=O)N1CC[C@@H](NC(=O)c2sc3nccc4c3c2NC(=O)N4c2ccc(S(F)(F)(F)(F)F)cc2C)C1 [Example 264, (R)—N-(1-Acryloylpyrrolidin-3-yl)-5-(2-methyl-4-(pentafluorothio)phenyl)-4-oxo-4,5-dihydro-3H-1-thia-3,5,8-triazaacenaphthylene-2-carboxamide]  6.4
14. Cc1cc(Oc2ccccc2)ccc1N1C(=O)Nc2c(C(=O)NC[C@@H]3CCCN3C)sc3nccc1c23 [Example 265, (S)-5-(2-Methyl-4-phenoxyphenyl)-N-((1-methylpyrrolidin-2-yl)methyl)-4-oxo-4,5-dihydro-3H-1-thia-3,5,8-triazaacenaphthylene-2-carboxamide]  6.4
15. Cc1cc(Oc2ccccc2)ccc1N1C(=O)Nc2c(C(=O)N[C@@H]3C[C@H](O)CN(C)C3)sc3nccc1c23 [Example 266, N-((3R,5S)-5-Hydroxy-1-methylpiperidin-3-yl)-5-(2-methyl-4-phenoxyphenyl)-4-oxo-4,5-dihydro-3H-1-thia-3,5,8-triazaacenaphthylene-2-carboxamide]  6.3
16. CO[C@@H]1CNC[C@H](NC(=O)c2sc3nccc4c3c2NC(=O)N4c2ccc(Oc3ccccc3)cc2C)C1 [Example 268, N-((3R,5S)-5-Methoxypiperidin-3-yl)-5-(2-methyl-4-phenoxyphenyl)-4-oxo-4,5-dihydro-3H-1-thia-3,5,8-triazaacenaphthylene-2-carboxamide]  6.3
17. Cc1cc(Oc2ccccc2)ccc1N1C(=O)Nc2c(C(=O)NC[C@@H]3CCCN3)sc3nccc1c23 [Example 269, (S)-5-(2-Methyl-4-phenoxyphenyl)-4-oxo-N-(pyrrolidin-2-ylmethyl)-4,5-dihydro-3H-1-thia-3,5,8-triazaacenaphthylene-2-carboxamide]  6.3
18. C=CC(=O)N1CC[C@@H](NC(=O)c2sc3nccc4c3c2NC(=O)N4c2ccc(OC3CCOCC3)cc2C)C1 [Example 270, (R)—N-(1-Acryloylpyrrolidin-3-yl)-5-(2-methyl-4-((tetrahydro-2H-pyran-4-yl)oxy)phenyl)-4-oxo-4,5-dihydro-3H-1-thia-3,5,8-triazaacenaphthylene-2-carboxamide]  6.3
19. C=CC(=O)N1CCC[C@@H](NC(=O)c2sc3nccc4c3c2NC(=O)N4c2ccc(C)cc2)C1 [Example 271, (R)—N-(1-Acryloylpiperidin-3-yl)-4-oxo-5-(p-tolyl)-4,5-dihydro-3H-1-thia-3,5,8-triazaacenaphthylene-2-carboxamide]  6.3
20. Cc1cc(Oc2ccccc2)ccc1N1C(=O)Nc2c(C(=O)N[C@H]3CN(C)CC(F)(F)C3)sc3nccc1c23 [Example 272, (R)—N-(5,5-Difluoro-1-methylpiperidin-3-yl)-5-(2-methyl-4-phenoxyphenyl)-4-oxo-4,5-dihydro-3H-1-thia-3,5,8-triazaacenaphthylene-2-carboxamide]  6.3
21. Cc1cc(Oc2ccccc2)ccc1N1C(=O)Nc2c(C(=O)NC3CN(C(C)C)C3)sc3nccc1c23 [Example 273, N-(1-Isopropylazetidin-3-yl)-5-(2-methyl-4-phenoxyphenyl)-4-oxo-4,5-dihydro-3H-1-thia-3,5,8-triazaacenaphthylene-2-carboxamide]  6.3
22. Cc1cc(Oc2ccccc2)ccc1N1C(=O)Nc2c(C(=O)N[C@@H]3CCCN(C(=O)/C=C/C(C)(C)C)C3)sc3nccc1c23 [Example 274, (R,E)-N-(1-(4,4-Dimethylpent-2-enoyl)piperidin-3-yl)-5-(2-methyl-4-phenoxyphenyl)-4-oxo-4,5-dihydro-3H-1-thia-3,5,8-triazaacenaphthylene-2-carboxamide]  6.3
23. Cc1cc(Oc2ccccc2)ccc1N1C(=O)Nc2c(C(=O)NCCN3CCOCC3)sc3nccc1c23 [Example 275, 5-(2-Methyl-4-phenoxyphenyl)-N-(2-morpholinoethyl)-4-oxo-4,5-dihydro-3H-1-thia-3,5,8-triazaacenaphthylene-2-carboxamide]  6.3
24. Cc1cc(Oc2ccccc2)ccc1N1C(=O)Nc2c(C(=O)NC[C@H]3CCCN3)sc3nccc1c23 [Example 276, (R)-5-(2-Methyl-4-phenoxyphenyl)-4-oxo-N-(pyrrolidin-2-ylmethyl)-4,5-dihydro-3H-1-thia-3,5,8-triazaacenaphthylene-2-carboxamide]  6.3
25. C/C=C(\Cl)C(=O)N1CCC[C@@H](NC(=O)c2sc3nccc4c3c2NC(=O)N4c2ccc(Oc3ccccc3)cc2C)C1 [Example 277, (R,Z)—N-(1-(2-Chlorobut-2-enoyl)piperidin-3-yl)-5-(2-methyl-4-phenoxyphenyl)-4-oxo-4,5-dihydro-3H-1-thia-3,5,8-triazaacenaphthylene-2-carboxamide]  6.2
26. C=CC(=O)N1CCC[C@@H](NC(=O)c2sc3nccc4c3c2NC(=O)N4c2ccc(Oc3ccccc3)cc2C(F)(F)F)C1 [Example 278, (R)—N-(1-Acryloylpiperidin-3-yl)-4-oxo-5-(4-phenoxy-2-(trifluoromethyl)phenyl)-4,5-dihydro-3H-1-thia-3,5,8-triazaacenaphthylene-2-carboxamide]  6.2
27. C=CC(=O)N1CCC[C@@H](NC(=O)c2sc3nccc4c3c2NC(=O)N4c2cccc(C)c2)C1 [Example 279, (R)—N-(1-Acryloylpiperidin-3-yl)-4-oxo-5-(m-tolyl)-4,5-dihydro-3H-1-thia-3,5,8-triazaacenaphthylene-2-carboxamide]  6.2
